From US12161723B2, “Water-based cannabinoid and opioid compositions” (DAY THREE LABS MAN[…]., priority 2014, dated 2024)

T1: ovalbumin (hen) (Gallus gallus, UniProt P01012)
T1 sequence (P01012 1-386): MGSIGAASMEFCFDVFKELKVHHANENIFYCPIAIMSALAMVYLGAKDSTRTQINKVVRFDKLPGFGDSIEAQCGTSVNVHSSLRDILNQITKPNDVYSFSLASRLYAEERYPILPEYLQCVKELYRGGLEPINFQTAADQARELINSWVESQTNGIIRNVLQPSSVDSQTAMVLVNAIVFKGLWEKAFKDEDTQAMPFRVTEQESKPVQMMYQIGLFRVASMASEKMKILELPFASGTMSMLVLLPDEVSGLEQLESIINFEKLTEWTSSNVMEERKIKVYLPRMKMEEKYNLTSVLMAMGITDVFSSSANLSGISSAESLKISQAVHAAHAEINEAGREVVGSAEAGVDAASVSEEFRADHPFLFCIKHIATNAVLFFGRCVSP


Legend:
[1] = biological target: T2, BSA (Bos taurus, UniProt P02769); test: Cannabis smoke/vapor passed through BSA/water/ethanol solution, cannabinoid profile (Example 1d); assay type: binding, bovine; details: 33% ethanol, 48 hours incubation, washed
Description: (§1) To show which cannabinoid compounds are solubilized in processes using BSA versus organic solvents, cannabis from two different batches was smoked and or vaporized. Vapor was formed using a “volcano” vaporizer at a temperature of 210° C. The smoke/vapor was passed through either a BSA/water/ethanol solution described in example 1b, comprising 33% by volume ethanol or through a pure ethanol (99% ethanol) solution. Solutions were stirred using a magnetic stirrer and were incubated for 48 hours, during which time, most of the ethanol evaporated. One of the batches of cannabis was high in THC, and the other batch of cannabis was high in both THC and CBD.
The BSA/water/ethanol solution was washed after smoke or vapor was combined with it, and the amount of cannabinoids present was analyzed. The results of the comparison of relative concentration of cannabinoids (relative to total cannabinoid content) as expressed in percent (weight/weight), for a strain of cannabis high in THC are shown in the table below.

[2] = 3 g high THC strain; 200 ml ethanol concentrated to about 3 ml
[3] = biological target: T2, BSA; test: Cannabis extract combined with albumin solution, cannabinoids adsorbed to BSA (Example 2a); assay type: binding, bovine; details: albumin solution 10 mg/ml (BSA) with 20% ethanol, 2 hours at room temperature
Description: (§2) Cannabis extract was prepared as follows: In short, cannabis plant matter is dried, ground and homogenized to form ground cannabis. The ground cannabis is extracted with methanol/chloroform (volume/volume ratio of 9:1). Sonication and filtration is then performed. Identity of cannabinoids is determined by HPLC by evaporation, dissolution in an appropriate solvent.
(§3) Drying of the cannabis plant matter occurs under high vacuum at about 37±2° C. for about 24 hours and then ground to form a fine powder. 200 mg of ground powder is combined with 10 ml of methanol/chloroform, and sonicated in an ice bath for 30 minutes at maximum power. The supernatant is then filtered through a 0.2 micron filter.
(§4) A sample of the cannabis extract was analyzed for content of cannabinoids. The cannabis extract was then combined with albumin solution having 20% ethanol at 10 mg/ml (BSA) and incubated for 2 hours at room temperature.

[4] = Cannabis smoke/vapor passed through pure ethanol, cannabinoid profile (Example 1d); assay type: physicochemical; details: for relative concentration of cannabinoids (relative to total cannabinoid content), Vapor passed through ethanol: vapor at 210° C.
Description: as §1

[5] = biological target: T3, rice recombinant human serum albumin (HSA) (Homo sapiens, UniProt P02768); test: Cannabis vapor streamed through protein solution, cannabinoids adsorbed (Example 1f); assay type: binding; details: vapor of cannabis high in CBD; 1 mg/ml protein, ethanol:water 1:2, 30° C., 24 hours
T3 construct: host or cells: rice (recombinant expression host)
Description: (§5) The protein solutions were formed using ethanol and water in a 1:2 ratio. The solutions were incubated at 30° C. for 24 hours.

[6] = biological target: T1, ovalbumin (hen); test: as above; assay type: binding; details: vapor of cannabis high in CBD; for percentage of each cannabinoid relative to total cannabinoids adsorbed to protein, Ovalbumin: 1 mg/ml protein, ethanol:water 1:2, 30° C., 24 hours
Description: as §5

[7] = system: bovine γ-globulin; test: as above; assay type: binding; details: vapor of cannabis high in CBD; 1 mg/ml protein, ethanol:water 1:2, 30° C., 24 hours
Description: as §5

[8] = biological target: albumin (BSA) (Bos taurus, UniProt P02769); test: Ethanolic cannabinoid solution mixed with aqueous albumin, protein-bound cannabinoid quantified (Example 2b); assay type: binding, bovine; design: protein-bound cannabinoid quantified, Vapor: unit not given beside the values; details: 100 microliters ethanolic solution + 500 microliters 5 mg/ml BSA, 30° C., 12 hours, non-adsorbed cannabinoids separated
Description: 100 microliters of ethanolic cannabinoid solution from cannabis vapor and cannabis smoke were each mixed with 500 microliters of aqueous albumin solution that had been prepared at a concentration of 5 mg albumin (BSA)/ml. The aqueous albumin solution combined with the ethanolic cannabinoid solution was incubated at 30° C. for 12 hours in open tubes. After 12 hours, the tubes were mixed and centrifuged, and non-adsorbed cannabinoids were separated from the solution. Concentrated protein-bound cannabinoid was dried and quantified as described below.

[9] = Cannabinoid content of cannabis extract (Example 2a); assay type: physicochemical; details: methanol/chloroform 9:1 cannabis extract
Description: as §2, §3, §4

[10] = strain of cannabis high in CBD and THC

Sequence of albumin (BSA) (P02769 25-607): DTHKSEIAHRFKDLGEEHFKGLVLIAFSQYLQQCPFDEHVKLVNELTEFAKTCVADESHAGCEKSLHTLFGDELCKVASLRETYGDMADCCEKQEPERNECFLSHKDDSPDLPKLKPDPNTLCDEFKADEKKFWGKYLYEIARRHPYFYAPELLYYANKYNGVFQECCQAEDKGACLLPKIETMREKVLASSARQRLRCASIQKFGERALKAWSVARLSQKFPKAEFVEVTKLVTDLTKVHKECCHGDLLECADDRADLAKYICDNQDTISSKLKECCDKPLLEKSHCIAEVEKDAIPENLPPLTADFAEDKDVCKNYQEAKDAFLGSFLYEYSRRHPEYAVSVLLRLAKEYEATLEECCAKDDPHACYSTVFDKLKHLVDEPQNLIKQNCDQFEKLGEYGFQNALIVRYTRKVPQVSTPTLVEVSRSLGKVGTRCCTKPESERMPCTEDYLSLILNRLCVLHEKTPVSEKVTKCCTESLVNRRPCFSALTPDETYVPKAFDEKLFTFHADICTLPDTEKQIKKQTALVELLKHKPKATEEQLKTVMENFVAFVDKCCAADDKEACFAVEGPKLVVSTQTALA
T2 sequence (P02769 25-607): as above
T3 sequence (P02768 25-609): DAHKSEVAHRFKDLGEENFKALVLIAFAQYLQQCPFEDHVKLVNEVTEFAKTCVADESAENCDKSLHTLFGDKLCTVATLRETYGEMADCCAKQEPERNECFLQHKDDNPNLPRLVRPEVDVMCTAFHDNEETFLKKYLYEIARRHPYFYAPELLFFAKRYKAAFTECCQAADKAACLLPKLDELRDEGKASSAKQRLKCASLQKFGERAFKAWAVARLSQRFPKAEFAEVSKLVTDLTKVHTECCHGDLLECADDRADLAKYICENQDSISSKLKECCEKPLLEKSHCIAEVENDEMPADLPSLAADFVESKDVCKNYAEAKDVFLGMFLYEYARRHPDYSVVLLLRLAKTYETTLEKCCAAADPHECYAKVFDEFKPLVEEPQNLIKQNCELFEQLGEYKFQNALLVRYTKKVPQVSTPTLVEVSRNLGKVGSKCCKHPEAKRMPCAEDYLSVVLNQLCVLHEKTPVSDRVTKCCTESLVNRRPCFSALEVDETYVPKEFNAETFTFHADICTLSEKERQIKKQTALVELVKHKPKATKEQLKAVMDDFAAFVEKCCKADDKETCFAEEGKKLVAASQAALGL

Molecule | relative concentration of cannabinoids (relative to total cannabinoid content), Smoke passed through BSA/water/ethanol [1, 10] | relative concentration of cannabinoids (relative to total cannabinoid content), Vapor passed through BSA/water/ethanol [1, 10] | relative concentration of cannabinoids (relative to total cannabinoid content), Smoke passed through BSA/water/ethanol ([1]; strain of cannabis high in THC) | amount of cannabinoids dissolved in ethanol, Smoke [2] | amount of cannabinoids dissolved in ethanol, Vapor [2] | percentage of each cannabinoid relative to total cannabinoids adsorbed to protein, Adsorbed to BSA after extract combined with BSA solution [3] | relative concentration of cannabinoids (relative to total cannabinoid content), Smoke passed through ethanol [4, 10] | relative concentration of cannabinoids (relative to total cannabinoid content), Vapor passed through ethanol [4, 10] | relative concentration of cannabinoids (relative to total cannabinoid content), Smoke passed through ethanol ([4]; strain of cannabis high in THC) | relative concentration of cannabinoids (relative to total cannabinoid content), Vapor passed through ethanol ([4]; strain of cannabis high in THC) | percentage of each cannabinoid relative to total cannabinoids adsorbed to protein, Rice recombinant HSA [5] | percentage of each cannabinoid relative to total cannabinoids adsorbed to protein, Ovalbumin [6] | percentage of each cannabinoid relative to total cannabinoids adsorbed to protein, Bovine γ-globulin [7] | protein-bound cannabinoid quantified, Smoke [8] | protein-bound cannabinoid quantified, Vapor [8] | percentage of each cannabinoid relative to total cannabinoids, Extract [9] | cannabinoid adsorbed per mg of protein ([6]; 1 mg/ml ovalbumin)
C=C(C)[C@@H]1CCC(C)=C[C@H]1c1c(O)cc(CCCCC)cc1O [CBD, cannabidiol, reference compound] | 22.3 percent (weight/weight) | 33.4 percent (weight/weight) | 0.0 percent (weight/weight) | 0 micrograms/ml | 17.2726 micrograms/ml | 0 percentage | 44.7 percent (weight/weight) | 51.1 percent (weight/weight) | 1.9 percent (weight/weight) | 0.3 percent (weight/weight) | 33 percentage | 55.9 percentage | 0 percentage | 0 | 0 | 0 percentage | –
C=C(C)[C@@H]1CCC(C)=C[C@H]1c1c(O)cc(CCCCC)c(C(=O)O)c1O [CBDA, cannabidiolic acid] | 39.8 percent (weight/weight) | 23.6 percent (weight/weight) | 0.0 percent (weight/weight) | 0 micrograms/ml | 3.1218 micrograms/ml | 0 percentage | 2.3 percent (weight/weight) | 1.6 percent (weight/weight) | 0.9 percent (weight/weight) | 0.4 percent (weight/weight) | 46 percentage | 2.4 percentage | 0 percentage | 0 | 0 | 1 percentage | –
CCCCCc1cc(O)c2c(c1)OC(C)(C)[C@@H]1CC=C(C)C[C@@H]21 [DELTA-8-THC] | 0.0 percent (weight/weight) | 0.0 percent (weight/weight) | 0.0 percent (weight/weight) | 0 micrograms/ml | 0 micrograms/ml | – | 0.0 percent (weight/weight) | 0.0 percent (weight/weight) | 0.0 percent (weight/weight) | 0.0 percent (weight/weight) | – | – | – | 0 | 4.6 | – | –
CCCc1cc(O)c2c(c1)OC(C)(C)[C@@H]1CCC(C)=C[C@@H]21 [THCV, tetrahydrocannabivarin] | 0.0 percent (weight/weight) | 0.0 percent (weight/weight) | 0.0 percent (weight/weight) | – | – | – | 2.4 percent (weight/weight) | 0.8 percent (weight/weight) | 2.4 percent (weight/weight) | 0.7 percent (weight/weight) | – | – | – | – | – | – | –
ovalbumin: ovalbumin (hen) (protein, UniProt P01012 2-386, looked up) Ovalbumin: GSIGAASMEFCFDVFKELKVHHANENIFYCPIAIMSALAMVYLGAKDSTRTQINKVVRFDKLPGFGDSIEAQCGTSVNVHSSLRDILNQITKPNDVYSFSLASRLYAEERYPILPEYLQCVKELYRGGLEPINFQTAADQARELINSWVESQTNGIIRNVLQPSSVDSQTAMVLVNAIVFKGLWEKAFKDEDTQAMPFRVTEQESKPVQMMYQIGLFRVASMASEKMKILELPFASGTMSMLVLLPDEVSGLEQLESIINFEKLTEWTSSNVMEERKIKVYLPRMKMEEKYNLTSVLMAMGITDVFSSSANLSGISSAESLKISQAVHAAHAEINEAGREVVGSAEAGVDAASVSEEFRADHPFLFCIKHIATNAVLFFGRCVSP | – | – | – | – | – | – | – | – | – | – | – | – | – | – | – | – | about 4 micrograms of cannabinoid per mg of protein
